Measured values taken from patent publication US20080227846A1, “METHODS OF TREATING JUVENILE TYPE 1 DIABETES MELLITUS” (MUSC Foundation for Research Development, priority 2007, published 2008).
Several values for one entry are separate records, joined by “and”; a condition that tells them apart may be missing. Equal entries are not always repeated.

How the values were obtained:
[1] = system: new-onset T1DM patients; details: cited from earlier work
[2] = system: macrophages (ED1) and granulocytes (GR) infiltrated into the pancreatic islets; assay: Immunohistopathology staining of pancreas for infiltration of macrophages and granulocytes; details: for entry of inflammatory cells into pancreatic tissue: animals of Example 1
[3] = system: iNOS, TNF-α, and IFN-γ mRNA; assay: Quantitative real-time PCR of pancreas, pro-inflammatory cytokines and iNOS; assay type: in vivo, mouse; details: FIG. 9, vs saline-treated mice
[4] = system: NOD mice; assay: Prevention of diabetes in NOD mice, daily oral atorvastatin calcium or AICAR; assay type: in vivo, mouse; details: for NOD mice without diabetes compared to saline: FIG. 6, atorvastatin p<0.004, AICAR 10 mg/kg body weight per day orally p<0.001
Source text: The non-obese diabetic (NOD) mouse model is the best-studied animal model of autoimmune diabetes. […] Spontaneous diabetes occurs in female NOD mice and is preceded by insulitis, a lymphocytic infiltration of the pancreatic islets, which is the major histologic event occurring by 5-8 weeks in the NOD mouse (Chatenoud et al., Proc. Natl. Acad. Sci. 91:123-127, 1994).
In these experiments, 4-week old female NOD mice were obtained from Jackson Laboratories (JAX strain no 001976; NOD/LtJ strain) and maintained in a sterile environment. Drug treatment began at 4-weeks of age, prior to inflammatory disease onset. Under normal conditions, diabetes begins appearing in NOD mice by 12-weeks in untreated animals, with 90-100% of the mice developing the disease by 30-weeks.
The animals were divided into three groups of 23 animals each. Group 1 was the control and received vehicle only by oral lavage of physiological saline daily. Groups 2 and 3 received atorvastatin calcium (Lipitor®) at a dose of 5 or 10 mg/kg body weight daily, respectively. Blood glucose (BG) was measured in each animal three-times per week. […] Also, two non-diabetic animals from each group were sacrificed on days 50, 70, and 80 for histological and cytokine analyses (not included in FIG. 1).
In addition to statins, AICAR was also administered to NOD mice at 10 mg/kg body weight per day orally.

[5] = system: NOD mice; assay: Atorvastatin calcium and AICAR, individually and in combination, blood glucose in NOD mice; assay type: in vivo, mouse; details: FIG. 8
[6] = system: iNOS and TNF-α protein; assay: Western blot of pancreas tissue; assay type: in vivo, mouse; details: vs saline-treated diabetic mice
[7] = Palomer et al., Diabetologia 48:1671-1673 (2005); cited from earlier work
[8] = system: juvenile patients newly diagnosed with T1DM; assay: Statin treatment of juvenile patients newly diagnosed with T1DM, C-peptide; assay type: in vivo, human; details: patient
Experimental: Two juvenile patients newly diagnosed with T1DM were treated with a statin in order to evaluate whether the diabetic condition in the juvenile patient can be stabilized or reversed by statin treatment. A human patient who was positive for insulin antibodies was identified as having new onset T1DM. […] The patient was treated with 10 mg/day for the first two weeks after diagnosis, and 20 mg/day thereafter.
A human patient who was positive for insulin antibodies was identified as having new onset T1DM. The patient began treatment with 20 mg/day atorvastatin calcium (Lipitor®) at the time (the day of) diagnosis of T1DM. […] Normally, within 12 months after diagnosis a child would have been expected to drop from 100% of the insulin the patient started with to 14.0%±7% (s.d.) of the insulin the child started with.

[9] = system: NOD mice; assay: Simvastatin plus insulin, blood glucose in NOD mice; assay type: in vivo, mouse
Experimental: In another experiment, simvastatin was administered to NOD mice, and the animals were supplemented with insulin in an attempt to keep the animals from developing diabetic ketoacidosis. The study was designed to examine whether simvastatin at 2 mg/kg/day and 5 mg/kg/day protected islet cells from damage during early phases of diabetes. […]. The animals were divided into four groups randomly. Group 1 was the control and received oral lavage of physiological saline daily, plus insulin as set forth above. Groups 2 and 3 received simvastatin at a dose of 2 mg/kg/day or 5 mg/kg/day, respectively, along with insulin as set forth above. Group 4 received no treatment with either simvastatin or insulin. Blood glucose (BG) was measured in each animal approximately once a week, unless the glucose level of an animal began to fluctuate, at which time glucose level were measured every other day. This study lasted approximately four months. The last column of Table 1 is a list of measurements of glucose levels in all animals treated with simvastatin.

In the case of “TRX4: anti-CD3 monoclonal antibody with orphan drug status”, the “adverse effect associated with therapy” value ([1]; six-day intravenous infusion) is given as “moderate “flu-like” syndrome”.

In the case of `NC(=O)c1ncn([C@@H]2O[C@H](CO)[C@@H](O)[C@H]2O)c1N` [AICAR, 5-aminoimidazole-4-carboxamide ribonucleoside], the “entry of inflammatory cells into pancreatic tissue” value [2] is reported as “inflammatory cells are not entering pancreatic tissue”, the “mRNA expression of iNOS, TNF-α, and IFN-γ in pancreas” value [3] is reported as “elevated in saline-treated mice” and the “NOD mice without diabetes compared to saline” value [4] is reported as “significantly different”. The “mean BG vs control Group 1” value ([5]; Group 4, 0.5 mg/gm body weight daily oral, p=0.025 by log-rank test) was “lower”.

With `CC(C)c1c(C(=O)Nc2ccccc2)c(-c2ccccc2)c(-c2ccc(F)cc2)n1CC[C@@H](O)C[C@@H](O)CC(=O)O` [atorvastatin calcium] the “entry of inflammatory cells into pancreatic tissue” value [2] was “inflammatory cells are not entering pancreatic tissue”, the “immunostaining for ED1 and GR1 marker proteins in pancreas” value ([2]; vs intense staining in saline-treated mice) was “No immunostaining was observed” and the “mRNA expression of iNOS, TNF-α, and IFN-γ in pancreas” value [3] was “elevated in saline-treated mice”. The “mean BGs” value ([4]; 10 mg/kg daily oral, s.e.=15, n=277, p<0.001 vs saline 219) was 182.5, the “NOD mice without diabetes compared to saline” value [4] was “effective” and the “protection from development of auto-immune diabetes” value ([4]; NOD mice, 5 or 10 mg/kg daily) was “partially protects”. For the same molecule, the “number of surviving disease-free animals vs control group” value ([4]; after 104 days of treatment, 5 or 10 mg/kg daily, FIG. 1) was “greater”, the “number of animals that developed diabetes” value ([4]; during treatment, FIG. 1) was “reduction in the number of animals that developed diabetes” and the “expression of iNOS and TNF-α protein in pancreas” value [6] was “increased expression of iNOS and TNF-α protein in saline-treated diabetic mice compared with atorvastatin calcium-treated mice”. The “effect on preventing diabetes” value [7] was “no effect on preventing diabetes”, the “mean BG vs control Group 1” value ([5]; Group 2, 5 mg/kg body weight daily oral, day 59-109 after weaning) was “lower” and the “mean BG vs control Group 1” value ([5]; Group 3, 10 mg/kg body weight daily oral, day 59-109 after weaning) was “lower”. The C-peptide ([8]; 10 mg/day two weeks then 20 mg/day, six months, FIG. 14) was “marked increase in C-peptide”, the “rise of C-peptide levels” value ([8]; 20 mg/day, after 50 days of treatment) was 39.25% and the C-peptide level ([8]; 20 mg/day, after 50 days of treatment, initial 35.8 units) was 49.85 units. The “increase of insulin over the original amount of C-peptide” value ([8]; 20 mg/day, over a period of 24 months, FIG. 15) was 240% and the “net increase of the amount of insulin vs expected” value ([8]; expected […]±7% of starting insulin within 12 months) was 600%.

For “hOKT3y1(ala-ala): modified, nonmitogenic, humanized form of the anti-CD3 monoclonal antibody”, the “patients who maintained the same or improved endogenous insulin secretion” value ([1]; one year after initial 14-day course, 25% in the control group, Herold et al. 2002) is given as 75%.

In the case of `CCC(C)(C)C(=O)O[C@H]1C[C@@H](C)C=C2C=C[C@H](C)[C@H](CC[C@@H]3C[C@@H](O)CC(=O)O3)[C@H]21` [simvastatin], the “average blood glucose level” value ([9]; Group 2, simvastatin 2 mg/kg/day plus insulin, 36 determinations, p=0.05 vs saline plus insulin) is reported as 143.6 ± 26.5 mg/dL, the “average blood glucose level” value ([9]; Group 2, simvastatin 2 mg/kg/day plus insulin, 36 determinations, p=0.05 vs saline plus insulin, listed as Simv.) is reported as 143.6 mg/dL and the “average blood glucose level” value ([9]; Group 3, simvastatin 5 mg/kg/day plus insulin, 28 determinations, p<0.02 vs saline plus insulin) is reported as 134.5 ± 15.7 mg/dL. For the same molecule, the “average blood glucose level” value ([9]; Group 3, simvastatin 5 mg/kg/day plus insulin, 28 determinations, p<0.02 vs saline plus insulin, listed as Simv.) was 134.5 mg/dL and the “average blood glucose level” value ([9]; Simvastatin Combined, 64 determinations) was 139.7 mg/dL and 139.6563 mg/dL.
